Source: BindingDB's records for doi:10.1111/cbdd.12198 (Shanghai Institute of Pharmaceutical Industry, 2014)

Assays:
[1] = target: Serine/threonine-protein kinase B-raf (Homo sapiens, UniProt P15056); test: Biochemical Assay; conditions: pH 7.5; 25 °C
Procedure: (§1) Compounds were prepared in DMSO at 10mmol/L and serially diluted in a 96-well plate as the source plate. The intermediate plate consists of 4µL from the source plate mixed with 96µL of 1× kinase buffer (50mmol/L HEPES, pH 7.5; 10mmol/L MgCl2; 1mmol/L EGTA; 0.01% Brij-35). Of 2.5µL was transferred to a 384-well assay plate in duplicates. To the assay plate, 5µL of BRAF 7nmol/L or BRAF V600E 0.7nmol/L, 2.5µL of substrate solution containing Fluorescein-MAP2K1 0.8µmol/L and ATP (for BRAF 2µmol/L, for BRAF V600E 6µmol/L) were added and the assay plate was incubated with the compounds for 1 h at room temperature. The reaction was stopped with the addition of 10µL of detection solution (antibody 4nmol/L and EDTA 20mmol/L in antibody dilution buffer) to each well of the assay plate.

[2] = target: Serine/threonine-protein kinase B-raf [V600E] (Homo sapiens, UniProt P15056, V600E); test: Biochemical Assay; conditions: pH 7.5; 25 °C
Procedure: as §1

Serine/threonine-protein kinase B-raf [V600E], sequence (P15056 2-766 V600E limits assumed): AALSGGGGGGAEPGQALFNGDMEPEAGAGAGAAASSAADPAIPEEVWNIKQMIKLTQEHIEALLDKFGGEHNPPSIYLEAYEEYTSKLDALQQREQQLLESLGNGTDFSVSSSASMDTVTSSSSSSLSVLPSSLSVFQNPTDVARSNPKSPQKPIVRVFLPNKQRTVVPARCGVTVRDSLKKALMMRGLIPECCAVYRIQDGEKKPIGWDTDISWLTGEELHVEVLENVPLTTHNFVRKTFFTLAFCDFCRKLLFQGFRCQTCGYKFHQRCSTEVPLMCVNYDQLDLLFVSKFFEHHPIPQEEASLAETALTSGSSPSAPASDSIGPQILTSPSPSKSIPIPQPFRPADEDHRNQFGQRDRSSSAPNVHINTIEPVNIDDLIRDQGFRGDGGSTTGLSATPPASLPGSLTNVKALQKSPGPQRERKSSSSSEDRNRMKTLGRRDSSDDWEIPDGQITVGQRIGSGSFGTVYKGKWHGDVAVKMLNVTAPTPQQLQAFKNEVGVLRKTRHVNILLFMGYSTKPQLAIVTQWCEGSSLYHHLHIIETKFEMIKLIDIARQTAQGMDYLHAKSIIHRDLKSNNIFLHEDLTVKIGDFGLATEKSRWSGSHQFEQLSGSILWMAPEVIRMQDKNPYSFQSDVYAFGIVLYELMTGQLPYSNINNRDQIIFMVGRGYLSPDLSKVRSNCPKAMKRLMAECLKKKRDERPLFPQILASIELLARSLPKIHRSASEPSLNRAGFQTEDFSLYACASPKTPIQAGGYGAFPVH
Serine/threonine-protein kinase B-raf, sequence (P15056 whole entry): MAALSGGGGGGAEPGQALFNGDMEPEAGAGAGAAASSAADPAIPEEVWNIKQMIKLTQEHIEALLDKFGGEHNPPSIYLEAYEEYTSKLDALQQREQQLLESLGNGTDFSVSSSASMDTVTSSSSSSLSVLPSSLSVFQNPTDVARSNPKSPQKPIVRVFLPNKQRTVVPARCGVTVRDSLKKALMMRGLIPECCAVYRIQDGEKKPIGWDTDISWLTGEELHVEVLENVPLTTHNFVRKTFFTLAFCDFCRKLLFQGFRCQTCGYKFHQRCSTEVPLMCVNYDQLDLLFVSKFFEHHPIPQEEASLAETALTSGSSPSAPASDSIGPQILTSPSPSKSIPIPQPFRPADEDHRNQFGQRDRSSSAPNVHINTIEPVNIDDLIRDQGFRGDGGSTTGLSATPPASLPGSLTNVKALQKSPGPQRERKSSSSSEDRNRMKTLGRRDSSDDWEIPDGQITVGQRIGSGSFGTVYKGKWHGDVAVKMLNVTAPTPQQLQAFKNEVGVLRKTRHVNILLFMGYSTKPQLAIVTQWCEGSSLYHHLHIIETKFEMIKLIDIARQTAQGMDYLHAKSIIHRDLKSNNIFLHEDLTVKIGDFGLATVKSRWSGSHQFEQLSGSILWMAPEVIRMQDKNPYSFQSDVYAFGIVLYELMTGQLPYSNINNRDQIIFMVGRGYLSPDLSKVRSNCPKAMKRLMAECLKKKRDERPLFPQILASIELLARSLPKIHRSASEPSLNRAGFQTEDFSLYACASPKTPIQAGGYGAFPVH

| Compound | IC50 [1] [nM] | IC50 [2] [nM] |
| --- | --- | --- |
| Cc1nc(Cl)cc(Nc2cccc(NC(=O)Nc3ccc(Cl)c(C(F)(F)F)c3)c2)n1 [1-(3-(6-Chloro-2-methylpyrimidin-4-ylamino)phenyl)-3-(4-chloro-3-(trifluoromethyl)phenyl)urea (Compound 1)] | 722 | 298 |
| Cc1nc(Nc2cccc(NC(=O)Nc3ccc(F)c(Cl)c3)c2)cc(N2CCOCC2)n1 [1-(3-Chloro-4-fluorophenyl)-3-(3-(2-methyl-6-morpholinopyrimidin-4-ylamino)phenyl)urea (Compound 2)] | 1070 | 626 |
| Cc1nc(N2CCOCC2)cc(N(C)c2cccc(NC(=O)Nc3ccc(F)c(Cl)c3)c2)n1 [1-(3-Chloro-4-fluorophenyl)-3-(3-(methyl (2-methyl-6-morpholinopyrimidin-4-yl)amino)phenyl)urea (Compound 5)] | 366 | 232 |
| Cc1nc(Nc2cccc(NC(=O)Nc3ccc(Cl)c(C(F)(F)F)c3)c2)cc(N2CCN(C)CC2)n1 [1-(4-Chloro-3-(trifluoromethyl)phenyl)-3-(3-(2-methyl-6-(4-methylpiperazin-1-yl)pyrimidin-4-ylamino)phenyl)urea (Compound 4)] | > 10000 | 7170 |
| Cc1nc(Nc2cccc(NC(=O)Nc3ccc(Cl)c(C(F)(F)F)c3)c2)cc(N2CCOCC2)n1 [1-(4-Chloro-3-(trifluoromethyl)phenyl)-3-(3-(2-methyl-6-morpholinopyrimidin-4-ylamino)phenyl) urea (Compound 3)] | 271 | 142 |
| Cc1nc(N2CCN(C)CC2)cc(N(C)c2cccc(NC(=O)Nc3ccc(Cl)c(C(F)(F)F)c3)c2)n1 [1-(4-Chloro-3-(trifluoromethyl)phenyl)-3-(3-(methyl (2-methyl-6-(4-methylpiperazin-1-yl)pyrimidin-4-yl)amino)phenyl)urea (Compound 7)] | 5280 | 4990 |
| Cc1nc(N2CCOCC2)cc(N(C)c2cccc(NC(=O)Nc3ccc(Cl)c(C(F)(F)F)c3)c2)n1 [1-(4-Chloro-3-(trifluoromethyl)phenyl)-3-(3-(methyl (2-methyl-6-morpholinopyrimidin-4-yl)amino)phenyl)urea (Compound 6)] | 1370 | 1370 |
